The record followed here is US20020165236A1, “Compounds for the treatment of protozoal diseases” (priority 2001, published 2002).

As usually defined, the IC50 is the concentration needed to halve the response being measured.

The assay has as its system multiresistant Dd2 strain of Plasmodium falciparum. In words: antiplasmodial action, [8-3H]hypoxanthine incorporation, Dd2 strain. Format: cell-based. The conditions noted are these: read-out: in vitro antiplasmodial activity (IC50 value class). The method, then:
For the determination of the antiplasmodial action of the compounds, the multiresistant Dd2 strain of Plasmodium falciparum was used. The incorporation of [8-^3H]hypoxanthine into the parasitic nucleic acids was measured. The plasmodia were incubated at 0.3% parasitaemia and an erythrocyte haematocrit of 2.5% in the presence of different concentrations of the compounds in a final volume of 200-μl. The medium employed was RPMI 1640 which contained 10% of heat-treated human serum and 3 mg/l of gentamycin. in the incubations, the concentrations of the compounds varied from 0.3 to 100 μM. After 48 h, each batch was treated with 50 µl of […] (1 mCi/ml) and incubated for a further 18 h. The cells were filtered off, washed and suspended in 20 μl of scintillation fluid. The radioactive hypoxanthine absorbed by the parasites was then quantified using a scintillation counter.
The results were presented graphically and the IC50 value was determined using a fitting function. The value IC50, the ‘inhibition constant’, indicates the value in μMol/1 at which 50% inhibition occurs.
In the case of `N=C(N)c1ccc(NC(=O)Nc2ccc(S(=O)(=O)NCc3c(F)cccc3F)cc2)cc1` [Compound 54], the IC50 is below 1000 nM.

Consider `N=C(N)c1cccc(NC(=O)Nc2ccc(Cl)c(C(F)(F)F)c2)c1` [Compound 9], for which the IC50 is below 1000 nM. On to `N=C(N)c1cccc(NC(=O)Nc2ccc(S(=O)(=O)NCc3cccc(C(F)(F)F)c3)cc2)c1` [Compound 37, 3-{3-[4-(3-trifluoromethyl-benzylsulfamoyl)-phenyl]-ureido}-benzamidine], for which the IC50 was below 1000 nM.

Take `N=C(N)c1cccc(NC(=O)Nc2ccc(C(F)(F)F)cc2)c1` [Compound 8]: the IC50 was 1000 to 10000 nM. Take `N=C(NO)c1cccc(NC(=O)Nc2ccc(S(=O)(=O)c3ccc([N+](=O)[O-])cc3)cc2)c1` [Compound 85]: the IC50 is below 1000 nM. With `N=C(N)c1cccc(NC(=O)Nc2cccc(S(=O)(=O)NCc3cccc(F)c3)c2)c1` [Compound 57] the figure was 1000 to 10000 nM; with `N=C(N)c1cccc(NC(=O)Nc2ccccc2Br)c1` [Compound 3], 1000 to 10000 nM; with `N=C(N)c1ccc(NC(=O)Nc2ccc(S(=O)(=O)NCc3ccc(S(N)(=O)=O)cc3)cc2)cc1` [Compound 51, 4-{3-[4-(4-sulfamoylbenzylsulfamoyl)-phenyl]-ureido}-benzamidine], below 1000 nM. On to `N=C(N)c1cccc(NC(=O)Nc2ccc(S(=O)(=O)NNC(=O)c3ccc(-c4ccccc4)cc3)cc2)c1` [Compound 60], for which the half-inhibitory concentration (IC50) fell in the range of 1000 to 10000 nM. As for `CSc1ccc(NC(=O)Nc2cccc(C(=N)N)c2)cc1` [Compound 7], the IC50 lay in the range of 1000 to 10000 nM. To `N=C(N)c1cccc(NC(=O)Nc2ccc(C(=O)NCc3ccc(S(N)(=O)=O)cc3)cc2)c1` [Compound 73, 4-[3-(3-carbamimidoylphenyl)-ureido]-N-(4-sulfamoylbenzyl)-benzamide] belongs 1000 to 10000 nM. Take `N=C(N)c1cccc(NC(=O)Nc2ccc(S(=O)(=O)NC(c3ccccc3)c3ccccc3)cc2)c1` [Compound 23, 3-{3-[4-(benzhydrylsulfamoyl)-phenyl]-ureido}-benzamidine]: the 50% inhibitory concentration (IC50) was below 1000 nM. With `N=C(Nc1cccnc1)c1cccc(NC(=O)Nc2ccc(S(=O)(=O)NCc3ccc(S(N)(=O)=O)cc3)cc2)c1` [Compound 89] the figure was 1000 to 10000 nM. For the compound `N#Cc1ccccc1NC(=O)Nc1cccc(C(=N)N)c1` [Compound 4], the IC50 was 1000 to 10000 nM. `COC(=O)c1cc(NC(=O)Nc2ccc(C(=N)N)cc2)cc(C(F)(F)F)c1` [Compound 16]: the 50% inhibitory concentration (IC50) was in the range of 1000 to 10000 nM. For `N=C(N)c1cccc(NC(=O)Nc2ccc(S(=O)(=O)Nc3ccccc3)cc2)c1` [Compound 26], the IC50 fell in the range of 1000 to 10000 nM. As for `N=C(N)c1ccc(NC(=O)Nc2cccc(C(F)(F)F)c2)cc1` [Compound 2], the IC50 lay within 1000 to 10000 nM. Regarding `N=C(N)c1cccc(NC(=O)Nc2cccc(C(=O)NC(c3ccccc3)c3ccccc3)c2)c1` [Compound 72], the IC50 was in the range of 1000 to 10000 nM.

For `N=C(N)c1cccc(NC(=O)Nc2ccc(NS(=O)(=O)c3ccccc3)c(O)c2)c1` [Compound 31], the IC50 was 1000 to 10000 nM. With `N=C(N)c1ccc(NC(=O)Nc2ccc(S(=O)(=O)NCc3cccc(F)c3)cc2)cc1` [Compound 52] the figure was below 1000 nM; with `CCN(CC)C(=O)c1cccc(NC(=S)Nc2cccc(C(=N)N)c2)c1` [Compound 80], below 1000 nM.

Turning to `N=C(N)c1cccc(NC(=O)Nc2ccc(S(=O)(=O)NCc3c(F)ccc(F)c3F)cc2)c1` [Compound 47, 3-{3-[4-(2,3,6-trifluorobenzylsulfamoyl)-phenyl]-ureido}-benzamidine], the IC50 was below 1000 nM. For `N=C(N)c1ccc(NC(=O)Nc2ccc(S(=O)(=O)NCc3c(F)ccc(F)c3F)cc2)cc1` [Compound 56], the IC50 was below 1000 nM. `N=C(N)c1cccc(NC(=O)Nc2ccc(S(=O)(=O)Nc3ccc(-c4ccc(N)cc4[N+](=O)[O-])cc3)cc2)c1` [Compound 27]: the half-maximal inhibitory concentration (IC50) fell in the range of 1000 to 10000 nM. Turning to `N=C(NCCN1CCOCC1)c1cccc(NC(=O)Nc2cccc(C(F)(F)F)c2)c1` [Compound 93], the IC50 lay within 1000 to 10000 nM.

Regarding `N=C(N)c1cccc(NC(=O)Nc2ccc(S(=O)(=O)NCc3ccc(C(F)(F)F)cc3)cc2)c1` [Compound 38], the IC50 is below 1000 nM. Turning to `N=C(N)c1cccc(NC(=O)Nc2ccc(S(=O)(=O)Nc3ccc4cccnc4c3)cc2)c1` [Compound 29], the 50% inhibitory concentration (IC50) was 1000 to 10000 nM. As for `N=C(N)c1ccc(NC(=O)Nc2ccc(S(=O)(=O)NCc3ccc(F)cc3)cc2)cc1` [Compound 53], the IC50 was below 1000 nM.

Take `COC(=O)c1cc(NC(=O)Nc2cccc(C(=N)NCCN(C)C)c2)cc(C(F)(F)F)c1` [Compound 87]: the IC50 fell in the range of 1000 to 10000 nM. With `CN(C)CCNC(=N)c1cccc(NC(=O)Nc2ccc(S(=O)(=O)c3ccc([N+](=O)[O-])cc3)cc2)c1` [Compound 81] the figure was 1000 to 10000 nM; with `N=C(N)c1ccc(NC(=O)Nc2ccc(S(=O)(=O)NCc3ccc(F)cc3F)cc2)cc1` [Compound 55], below 1000 nM; with `N=C(N)c1cccc(NC(=O)Nc2ccc(S(=O)(=O)NCc3cc(F)c(F)cc3F)cc2)c1` [Compound 41], 1000 to 10000 nM. On to `N=C(N)c1cccc(NC(=O)C(=O)Nc2ccc(S(=O)(=O)NCc3ccccc3)cc2)c1` [Compound 101, N-(4-benzylsulfamoylphenyl)-N′-(3-carbamimidoyl-phenyl)-oxalamide], for which the IC50 was in the range of 1000 to 10000 nM.

As to `N=C(NCCN1CCOCC1)c1cccc(NC(=O)Nc2ccc(S(=O)(=O)NCc3ccc(S(N)(=O)=O)cc3)cc2)c1` [Compound 90], the IC50 was below 1000 nM.

On to `N=C(N)c1cccc(NC(=O)C(=O)Nc2cccc(S(=O)(=O)NCc3ccccc3)c2)c1` [Compound 102, N-(3-benzylsulfamoylphenyl)-N′-(3-carbamimidoyl-phenyl)-oxalamide], for which the IC50 is 10000 to 100000 nM.

With `N=C(N)c1cccc(NC(=O)Nc2ccc(S(=O)(=O)c3ccc([N+](=O)[O-])cc3)cc2)c1` [Compound 63, 3-{3-[4-(4-nitrobenzenesulfonyl)-phenyl]-ureido}-benzamidine], the concentration for half-maximal inhibition (IC50) is below 1000 nM. With `Cc1cc(-c2onc(C)c2C(=O)Nc2ccc(NC(=O)Nc3cccc(C(=N)N)c3)cc2)no1` [Compound 71], the IC50 was in the range of 1000 to 10000 nM. As to `CN1C(=O)c2ccc(NC(=O)Nc3cccc(C(=N)N)c3)cc2C1=O` [Compound 17], the 50% inhibitory concentration (IC50) was 10000 to 100000 nM. In the case of `CC(=O)Nc1cccc(NC(=O)Nc2cccc(C(=N)N)c2)c1` [Compound 66], the IC50 was in the range of 1000 to 10000 nM. `N=C(N)c1cccc(NC(=O)Nc2ccc(S(=O)(=O)NCc3cccc(F)c3)cc2)c1` [Compound 36]: the IC50 is below 1000 nM. To `N=C(N)c1cccc(NC(=O)Nc2ccc(S(=O)(=O)NCc3cc(F)ccc3F)cc2)c1` [Compound 42] belongs below 1000 nM. For `N=C(N)c1cccc(NC(=S)Nc2ccc(S(=O)(=O)c3ccc(NCCO)cc3)cc2)c1` [Compound 77], the IC50 lay in the range of 1000 to 10000 nM. As to `N=C(N)c1cccc(NC(=O)Nc2ccc(S(=O)(=O)NCc3cc(F)cc(C(F)(F)F)c3)cc2)c1` [Compound 46], the IC50 fell in the range of 1000 to 10000 nM. `CSc1ccc(NC(=O)Nc2cccc(C(=N)NN)c2)cc1` [Compound 1]: the concentration for half-maximal inhibition (IC50) lay within 1000 to 10000 nM. `O=C(Nc1cccc(C2=NCCN2)c1)Nc1cccc(C(F)(F)F)c1` [Compound 91]: the IC50 was below 1000 nM. For the compound `Cc1ccc(S(=O)(=O)Nc2cccc(NC(=O)Nc3cccc(C(=N)N)c3)c2)cc1` [Compound 32], the IC50 lay within 10000 to 100000 nM. With `N=C(N)c1cccc(NC(=O)Nc2ccc(S(=O)(=O)NCc3ccccc3F)cc2)c1` [Compound 40] the figure was below 1000 nM. Take `N=C(N)c1cccc(NC(=S)Nc2ccc(S(=O)(=O)NCc3cccc(F)c3)cc2)c1` [Compound 75]: the IC50 was below 1000 nM. Consider `N=C(N)c1cccc(NC(=O)Nc2ccc(S(N)(=O)=O)cc2[N+](=O)[O-])c1` [Compound 28], for which the IC50 lay within 1000 to 10000 nM. Turning to `N=C(N)c1cccc(NC(=O)Nc2ccc(S(=O)(=O)NC3C4CC5CC(C4)CC3C5)cc2)c1` (stereo not shown) [Compound 22], the IC50 fell in the range of 10000 to 100000 nM. To `COc1ccc(C(=O)Nc2cccc(NC(=O)Nc3cccc(C(=N)N)c3)c2)cc1` [Compound 69] belongs below 1000 nM. `N=C(N)c1cccc(NC(=O)Nc2cccc(S(=O)(=O)NCc3ccc(S(N)(=O)=O)cc3)c2)c1` [Compound 58]: the IC50 fell in the range of 1000 to 10000 nM. To `N=C(NO)c1cccc(NC(=O)Nc2ccc(S(=O)(=O)NCc3ccc(S(N)(=O)=O)cc3)cc2)c1` [Compound 96] belongs 1000 to 10000 nM; to `COc1ccccc1C(=O)Nc1cccc(NC(=O)Nc2cccc(C(=N)N)c2)c1` [Compound 68], 1000 to 10000 nM. Consider `N=C(N)c1cccc(NC(=O)Nc2ccc(S(=O)(=O)NCc3cccc(OC(F)(F)F)c3)cc2)c1` [Compound 49], for which the IC50 was 1000 to 10000 nM. For the compound `N=C(N)c1cccc(NC(=O)Nc2ccc(S(N)(=O)=O)cc2)c1` [Compound 30], the IC50 lay within 1000 to 10000 nM. To `N=C(N)c1cccc(NC(=S)Nc2ccc(S(=O)(=O)NCc3ccc(C(F)(F)F)cc3)cc2)c1` [Compound 74] belongs below 1000 nM. With `CS(=O)(=O)c1ccc2nc(NC(=O)Nc3cccc(C(=N)N)c3)sc2c1` [Compound 6], the IC50 was 10000 to 100000 nM. Regarding `N=C(N)c1cccc(NC(=O)Nc2ccc(S(=O)(=O)NCc3c(F)cccc3F)cc2)c1` [Compound 45], the IC50 was below 1000 nM. With `COC(=O)c1cc(NC(=O)Nc2cccc(C(=N)NCCN3CCCC3)c2)cc(C(F)(F)F)c1` [Compound 88], the IC50 was 1000 to 10000 nM. To `N=C(N)c1cccc(NC(=O)Nc2cccc(NC(=O)c3ccc(-c4ccccc4)cc3)c2)c1` [Compound 70] belongs 1000 to 10000 nM.
